In patent publication US9040691B2, “Hydroxymethylaryl-substituted pyrrolotriazines as ALK1 inhibitors” (BAYER INTELLECTUAL PROPERTY GMBH, priority 2011, dated 2015):

How the values were obtained:
[1] = system: hSmad7 mRNA in BMP9-stimulated HMVEC; assay: Smad7 target gene induction: HMVEC cell assay and TaqMan expression analysis; type: cell-based; settings: Homo sapiens, hBMP9 stimulation, Smad7 mRNA by TaqMan
Procedure: B-2a. Smad7 Target Gene Induction: HMVEC Cell Assay and TaqMan Expression Analysis
Activation of ALK1 receptors by BMP9 induces the Smad1/5 signalling pathway and enhances expression of target genes Smad6, Smad7 and Id-1. Induction of Smad7-mRNA in BMP9-stimulated endothelial cells was determined to monitor the cellular potency of ALK1 kinase inhibitors.
Human microvascular endothelial cells (IIMVECadult, Cell Systems, St. Katharinen) were seeded in complete ENGS MV medium with all supplements (LifeLine Cell Technology) in 96 well plates with 10 000 cells per well. After 4 h incubation at 37° C. and 7.5% CO2 in a humidified incubator, medium was replaced with minimal medium (ENGS MV without supplements containing 0.02% FCS). After 16 h, test compounds or medium (controls) were added to the cultures, followed 30 min later by addition of hBMP9 (R&D Systems). Medium was removed 1 to 4 h later, plates were gently washed with phosphate-buffered saline, and cells were lysed with 150 μl per well of ice-cold RLT buffer (Qiagen).
Total cellular RNA was isolated with the Trizol® reagent protocol according to the manufacturer's specifications (Invitrogen, USA) and treated with DNAseI to remove genomic DNA contamination.
For relative quantitation of the mRNA distribution of hSmad7, total RNA from each sample was first reverse-transcribed using the ImProm-II Reverse Transcription System (Promega, USA) according to the manufacturer's protocol. The final volume was adjusted to 200 μl with water.
For relative quantitation of selected mRNA, the Applied Bioscience ABI 7900HT Sequence Detection System was used according to the manufacturer's specifications and protocols. PCR reactions were set up to quantitate hSmad7- and the housekeeping gene L32-mRNA. Forward and reverse primers and probes for hSmad7 and L32 were designed using the Applied Bioscience ABI Primer Expressim software and were synthesized by Eurogentec (Belgium). The hSmad7 forward primer sequence was: Primer 1 (SEQ ID NO 1). The hSmad7 reverse primer sequence was: Primer 2 (SEQ ID NO 2). Probe 1 (SEQ ID NO 3), labelled with FAM as the reporter dye and TAMRA as the quencher, was used as a probe for hSmad7. The L32 forward primer sequence was: Primer 3 (SEQ ID NO 4). The L32 reverse primer sequence was: Primer 4 (SEQ ID NO 5). Probe 2 (SEQ ID NO 6), labelled with FAM as the reporter dye and TAMRA as the quencher, was used as a probe for L32.
The following reagents were prepared in a total of 20 μl added per well: 1× qPCR-MasterMix (Eurogentec, Belgium) and hSmad7 forward and reverse primers each at 200 nM, 200 nM hSmad7 FAM/TAMRA-labelled probe 1 (SEQ ID NO 3), and 5 μl of template cDNA. Correspondingly, a second mix in a total of 20 μl was prepared using L32 FAM/TAMRA-labelled probe 2 (SEQ ID NO 6) and L32 forward and reverse primers added per well in parallel samples.
Thermal cycling parameters were 2 min at 50° C., followed by 10 min at 95° C., followed by 40 cycles of melting at 95° C. for 15 sec and annealing/extending at 60° C. for 1 min.
Calculation of Relative Expression:
The Ct (cycle threshold) values were calculated from the turning point of PCR product quantity curves by the ΔΔCt method (delta-delta Ct): ΔCt=CthSmad7−CtL32; relative expression=2^(15-ΔCt).
IC50 values of test compounds were calculated on basis of relative Smad7 expressions at different compound concentrations.

[2] = system: hSmad7 mRNA in BMP9-stimulated HUVEC; assay: Smad7 target gene induction: HUVEC cell assay and TaqMan expression analysis; type: cell-based, human; settings: 1 ng/ml BMP9 for 3 h, Smad7 mRNA by TaqMan
Procedure: B-2b. Smad7 Target Gene Induction: HUVEC Cell Assay and TaqMan Expression Analysis
The in vitro potency of ALK1 inhibitors was tested in a cell-based assay. Bone morphogenetic protein 9 (BMP9) induces Smad7 mRNA expression in human vascular endothelial cells (HUVEC) via activation of ALK1.
1.5×10^4 passage 2 HUVECs (Lonza, Basel, Switzerland) per well were seeded in a 96-well plate in EBM-2 medium containing EGM-2 additives and growth factors (Lonza, CC-3156 and CC-4176). After 4 h, the medium was changed to EBM-2 with 0.2% fetal calf serum (FCS) and the cells were starved for 20 h in a humidified incubator at 37° C., 5% CO2. Test compounds were added at 11 different concentrations between 0 and 10 000 nM one hour prior to stimulation of the cells for 3 h with recombinant human BMP9 protein at 1 ng/ml (dissolved in 4 mM hydrochloric acid, 0.1% BSA at 10 μg/ml; R&D Systems, Minneapolis, Minn., USA, 3209BP). Medium was removed, and the cells were lysed in 100 μl RLT buffer (Qiagen, Hilden, Germany). RNA was isolated using the Qiagen RNeasy 96 Kit (order-No. 74182) according to manufacturer's instructions and eluted from the columns with 65 μl RNAse-free water. Reverse transcription for quantitative RT-PCR was carried out with the Omniscript Kit (Qiagen, 205113) in RNAse-free 96-well round-bottom plates. Per well, 6.8 μl of a reaction master mix containing 2 μl 10×RT-buffer, 2 μl dNTPs (5 mM each), 1.6 μl random primer N6 (125 μM), 0.25 μl Rnase Out (40 U/μl) and 1 μl Omniscript Reverse Transcriptase were added. After addition of 13.2 μl of the RNA/water mixture, plate contents were mixed, incubated for 1 h at 37° C. and the total volume adjusted to 100 μl in each well by addition of 80 μl RNAse-free water.
The quantification of human Smad7 mRNA was carried out on a TaqMan using the Eurogentec qPCR Mastermix Plus (RT-QP2X-03-075+; Cologne, Germany) and employing human L32 as housekeeping reference mRNA. Per qPCR reaction, 2.8 μl primer mix, 10 μl master mix, 2.2 μl water and 5 μl cDNA were added. Thermal cycling parameters were 2 min at 50° C., followed by 10 min at 95° C., followed by 40 cycles of melting at 95° C. for 15 sec and annealing/extending at 60° C. for 1 min.
Smad7 mRNA levels induced by 1 ng/ml BMP9 without the addition of any inhibitor were set at 100% induction, and % inhibition was calculated for each test compound with this value. For each test compound, every value was determined in quadruplicate. The IC50 values were determined using Microsoft Excel. The fitting method used was a weighted, unconstrained ML-fit.

ALK1 kinase = ALK1 kinase (Homo sapiens (Human), UniProt P37023); assay: In vitro enzyme inhibition using scintillation of incorporated radio label (flashplate assay); type: biochemical; settings: biotinylated α-casein, 33P-ATP, 500 nM ATP
Procedure: B-1a. In Vitro Enzyme Inhibition Using Scintillation of Incorporated Radio Label (Flashplate Assay)
Test compounds diluted in DMSO are mixed with a suitable substrate/co-substrate (here: biotinylated α-casein and ^33P-ATP) in a corresponding assay buffer. Addition of the enzyme of interest (here: ALK1 kinase) starts the enzyme reaction. The enzyme-catalyzed incorporation of radio label into the substrate is measured via scintillation. Incorporated radio label is separated from free radio label via specific binding of the biotinylated substrate to strepavidin-coated microtiter plates (flashplates) and concomitant washing steps. The scintillation signal intensity (counts per minutes, cpm) is proportional to the enzyme activity. Enzyme inhibition results in a decreased signal intensity. IC50 values of the test compounds are determined by cpm-versus-[I] plots.
Reaction buffer contains 50 mM Tris pH 8.0 (Sigma), 1 mM MnCl2 (Sigma), 0.01% Nonidet P40 (Fluka), 0.5× Complete EDTA-free protease inhibitors (Roche; contains a mixture of several protease inhibitors for the inhibition of serine and cysteine (but not metallo-) proteases; 1 tablet contains protease inhibitors sufficient for a 50 ml cell extract; the concentration used in this assay corresponds to 1 tablet in 100 ml).
• 1.) Stop solution: Dulbecco's PBS (PAA, Pasching, Austria), 25 mM EDTA (Sigma), 25 μM ATP (Roche), 0.05% Triton X-100 (Sigma); • 2.) Saturation buffer: Dulbecco's PBS (PAA, Pasching, Austria), 100 μM ATP (Roche), 0.2% Triton X-100 (Sigma); • 3.) Wash buffer: Dulbecco's PBS (PAA, Pasching, Austria). Enzyme Solution:
ALK1 (Invitrogen, Paisley, United Kingdom) stock solution (35.7 ng/μl) is diluted to 4 ng/μl; final concentration in the reaction is 1 ng/μl.
Dephosphorylated α-casein (Sigma) is biotinylated according to the manufacturer's protocol (Pierce, Bonn, Germany) resulting in a stock solution of 61.6 μM. Briefly, EZ-Link® Biotin reagent (sulfosuccinimidyl-6-(biotinamido)hexanoate; Pierce, Bonn, Germany) is added in equal molarity to α-casein and incubated on ice for 2 h. Afterwards, the biotin reagent is removed by dialysis (2×2 h and overnight).
A 100 mM solution of cold (unlabelled) ATP (Roche) is diluted 1:100 before each test. For the substrate mix, α-casein is diluted to 2.22 μM resulting in a final concentration of 1 μM α-casein in the reaction. Additionally, cold ATP is added to give a 1.11 μM solution which results in a final concentration of 500 nM in the reaction.
Radioactive ATP Solution:
The stock solution (9.25 MBq/25 μl of ^33P-ATP; Perkin Elmer, Rodgau, Germany) is diluted to 651.2 Bq/μl.
Compounds are dissolved in 100% DMSO (10 mM stock solution) and diluted to 2 mM. Further dilutions are made stepwise 1:3.16 in DMSO.
A volume of 9 μl substrate solution is provided into each well of a 384 well microliter plate (Greiner Bio-One, Solingen, Germany), 1 μl compound solution and 5 μl of the radioactive ATP solution are added. Enzyme reaction starts with addition of 5 μl of enzyme solution. The mixture is incubated for 60 minutes at room temperature and then stopped by addition of 10 μl stop solution. The 384 well microliter flashplates (Perkin Elmer, Rodgau, Germany) are saturated with 50 μl saturation buffer per well for at least 60 minutes. Subsequently, a volume of 20 μl is discarded and replaced with 20 μl of the stopped ALK1 reaction mixture. Binding of biotinylated substrate to the flashplate is allowed for by overnight incubation at room temperature. Bound substrate is separated from unbound components through repeated washing steps (3×50 μl washing buffer per well). Finally, 50 μl washing buffer is added, and the scintillation signal (cpm) is measured in a suitable counter (Perkin Elmer, Rodgau, Germany).

Sequence of ALK1 kinase (P37023 22-503): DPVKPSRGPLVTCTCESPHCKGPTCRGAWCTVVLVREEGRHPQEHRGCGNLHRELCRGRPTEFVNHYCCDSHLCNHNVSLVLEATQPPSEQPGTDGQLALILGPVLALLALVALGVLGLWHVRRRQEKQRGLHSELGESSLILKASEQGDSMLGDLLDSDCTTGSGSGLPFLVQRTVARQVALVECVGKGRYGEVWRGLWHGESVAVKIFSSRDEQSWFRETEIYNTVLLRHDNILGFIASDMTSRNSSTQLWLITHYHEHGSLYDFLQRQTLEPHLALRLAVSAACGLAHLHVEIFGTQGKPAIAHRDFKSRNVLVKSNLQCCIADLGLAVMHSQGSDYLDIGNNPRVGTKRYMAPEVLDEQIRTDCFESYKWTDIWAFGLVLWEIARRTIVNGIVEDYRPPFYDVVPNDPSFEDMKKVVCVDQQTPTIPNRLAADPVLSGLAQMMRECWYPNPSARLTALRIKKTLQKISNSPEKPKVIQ

Compound	IC50 [1]	IC50 ([2]; Homo sapiens, 3 h)	IC50 (ALK1 kinase)	IC50 [2]
Nc1ncnn2c(C3CCNC3)cc(-c3cc(F)c(CO)c(F)c3)c12 (racemic) [Example 8, rac-{4-[4-Amino-7-(pyrrolidin-3-yl)pyrrolo[2,1-f][1,2,4]triazin-5-yl]-2,6-difluorophenyl}methanol]	60 nM			
COc1cc(-c2cc(C(O)C3CC3)n3ncnc(N)c23)ccc1CO (racemic) [Example 40, rac-{4-Amino-5-[4-(hydroxymethyl)-3-methoxyphenyl]pyrrolo[2,1-f][1,2,4]triazin-7-yl}(cyclopropyl)methanol]		62 nM	3.2 nM	
COc1cc(-c2cc(C(O)C3CC3)n3ncnc(N)c23)ccc1CO (single isomer, unassigned; ent-4) [Example 41, ent-4-Amino-5-[4-(hydroxymethyl)-3-methoxyphenyl]pyrrolo[2,1-f][1,2,4]triazin-7-yl}(cyclopropyl)methanol (enantiomer 1)]			3.5 nM	77 nM
COc1cc(-c2cc(C(O)C3CC3)n3ncnc(N)c23)ccc1CO (single isomer, unassigned; ent-4) [Example 42, ent-4-Amino-5-[4-(hydroxymethyl)-3-methoxyphenyl]pyrrolo[2,1-f][1,2,4]triazin-7-yl}(cyclopropyl)methanol (enantiomer 2)]			1.2 nM	6.6 nM
COc1cc(-c2cc(C3CCCNC3)n3ncnc(N)c23)cc(F)c1CO (centres unmarked) [Example 30, {4-[4-Amino-7-(piperidin-3-yl)pyrrolo[2,1-f][1,2,4]triazin-5-yl]-2-fluoro-6-methoxyphenyl}-methanol]		51 nM	2 nM	
CC(C)c1cc(-c2cc(F)c(CO)c(F)c2)c2c(N)ncnn12 [Example 43, [4-(4-Amino-7-isopropylpyrrolo[2,1-f][1,2,4]triazin-5-yl)-2,6-difluorophenyl]methanol]		27 nM	1.9 nM	
